# Assay results: US20240382489A1, “LIQUID PHARMACEUTICAL COMPOSITION” (Verona Pharma PLC, priority 2023, published 2024)
# Test system: patients aged 40-80 years with moderate to severe COPD
# Experiment: Clinical study of nebulised ensifentrine vs placebo in COPD: lung function (FEV1)
# Assay type: in vivo, human
# Settings: 3 mg BID by nebuliser
# Method: A clinical study was conducted to determine the efficacy of ensifentrine in treating COPD compared with placebo. Ensifentrine was administered by nebuliser at a dose of 3 mg twice daily (BID) for 24 weeks. The study was a multi-centre, randomized, double-blind, parallel-group, placebo-controlled trial with around 800 patients and 5:3 randomization.
# The study population included patients aged 40-80 years with moderate to severe COPD (FEV130%-70% p.n., FEV1/forced vital capacity (FVC) ratio<0.7, with mMRC≥2). The randomization stratified (a) the use of stable background maintenance LAMA or LABA therapy use (approx. 50%. yes or no) and (b) cigarette smoking (current or former). Inhaled corticosteroid (ICS) maintenance therapy was permitted in up to 20% of patients under certain provisions.
# The primary endpoint of the study was change from baseline in average FEV1 area under the curve (AUC)0-12 h post-dose at week 12. Secondary endpoints of the study included: peak FEV1 over 4 hours post-dose at Week 12; morning trough FEV1 at Week 12; and other endpoints including moderate/severe COPD exacerbations frequency over 24 Weeks.
# Baseline FEV1 is the mean of the two measurements taken before study medication on the day of first dosing, i.e., ≤40 minutes and just prior to dosing, both pre-dose on day 1. […]
smiles,measurement,value
"COc1cc2c(cc1OC)-c1c/c(=N\c3c(C)cc(C)cc3C)n(CCNC(N)=O)c(=O)n1CC2 [Ensifentrine, N-(2-{(2E)-9,10-dimethoxy-4-oxo-2-[(2,4,6-trimethylphenyl)imino]-6,7-dihydro-2H-pyrimido[6,1-a]isoquinolin-3(4H)-yl}ethyl)urea]",improvement in lung function in all subgroups of COPD patients,statistically significant improvement in lung function
